Legend:
LDL [1] = assay: Inhibition of Cu2+-catalyzed LDL oxidation in vitro; assay type: biochemical, porcine; conditions: 5 μM Cu2+, 2 hours at 37° C., fluorescence 430 nm; read-out: IC50 (50% inhibition of LDL oxidation)
Procedure: 6) Inhibition of Cu^2+ -catalyzed LDL oxidation in vitro LDL was isolated from porcine plasma which contained EDTA (1 mg/ml) by ultracentrifugation in salt solutions of NaCl/NaBr between the densities 1.019 and 1.063 g/ml (cf. R. J. Havel et al., J. Clin. Invest. 43, 1345 (1955)). LDL was then dialyzed against phosphate-buffered saline (160 mM NaCl, 10 mM NaH2 PO4), pH 7.4 and stored under nitrogen at 4° C. Before the oxidation process, the LDL fractions were diluted to a final protein concentration of 0.1 mg/ml using phosphate-buffered saline and 2.5 ml aliquot parts were pre-incubated under nitrogen with the test compounds (25 μl of ethanolic solution) for 1 hour at 37° C. (cf. McLean et al., Biochemistry 1989, 28, 321). For the Cu^2+ -catalyzed oxidation of LDL, 12.5 μl of a 1 mM CuSO4 solution were added to each sample, a 5 μM Cu^2+ concentration resulting. The incubation was carried out for 2 hours at 37° C. and in an air atmosphere. The fluorescence intensity was measured at 430 nm (excitation wavelength 365 nm) (cf. Steinbrecher, U. P., J. Biol. Chem. 1987, 262, 3603). […] In addition, the inhibition using a 10^-5 N concentration of the test compound is indicated in %.

serum lipoproteins = assay: Action on serum lipoproteins and other metabolic parameters of male rats in the subchronic test; assay type: in vivo; conditions: rat
Procedure: 3) Action on serum lipoproteins and other metabolic parameters of male rats in the subchronic test
Groups of male rats of the strain HOE: WISKf (SPF 71) having a starting weight of above 180 g received the test preparations daily in the morning (sodium salts of the dihydroxycarboxylic acids of the formula II) in polyethylene glycol 400 by stomach tube; the respective control group received only the vehicle. The last (7th) administration was carried out 24 hours before taking blood and sacrificing. There was free access to food and water during the experiment. 24 hours before taking blood, which wall carried out retroorbitally under slight ether anesthesia before and after the treatment period (i.e. on the 1st and 8th day), the food was withdrawn. Total cholesterol was determined in the serum of each individual animal [CHODPAP high performance method of Boehringer Mannheim], and, as a measure of the triglycerides, total glycerol was also determined analytically from the serum pool of all the animals of one group [GPO-PAP high performance method, Boehringer Mannheim].
Immediately after taking blood, the animals were sacrificed by dislocation of the spine, and the relative liver weight, the change in body weight and the food consumption were determined.
For the analysis of the serum lipoproteins, the serum of all the rats of one group was pooled. The serum lipoproteins were separated using the preparative ultracentrifuge.
The following conditions were used for the separation of the fractions VLDL, LDL and HDL:
The determination of the protein was carried out by the method of Lowry et al. [LOWRY O. H., ROSEBOROUGH, N.J., PARR, A. L. and RANDELL, R. J.: J. Biol. Chem. 193, 265 (1951)].

LDL [2] = conditions: cited from earlier work
[3] = 30 mg/kg daily by stomach tube, 7 administrations

IC50 (LDL [1]): 500 nM
Liver weight, % changes in the mean value relative to control (serum lipoproteins; [3]): +5%
Structure (SMILES): CC(C)(Sc1cc(C(C)(C)C)c(O)c(C(C)(C)C)c1)Sc1cc(C(C)(C)C)c(O)c(C(C)(C)C)c1 [probucol, reference compound]
Body weight, % changes in the mean value relative to starting (serum lipoproteins; [3]): +5%
Glycerol VLDL, % change compared to control (serum lipoproteins; [3]): +24%
Protein LDL, % change compared to control (serum lipoproteins; [3]): -23%
Protein VLDL, % change compared to control (serum lipoproteins; [3]): -6%
Total cholesterol HDL, % change compared to control (serum lipoproteins; [3]): -11%
Total cholesterol LDL, % change compared to control (serum lipoproteins; [3]): -24%
Total cholesterol VLDL, % change compared to control (serum lipoproteins; [3]): +4%
Cholesterol HDL/LDL (serum lipoproteins; 30 mg/kg daily, control standardization to 1.00): 0.97
oxidative modification of LDL in vivo (LDL [2]): prevents oxidative modification of LDL
biliary cholesterol excretion (LDL [2]; in vivo): increases biliary cholesterol excretion
lowering of LDL and HDL (LDL [2]; in vivo): lowers both LDL and HDL
plasma cholesterol-lowering action compared with a potent cholesterol biosynthesis inhibitor (such as mevinolin) (LDL [2]; in vivo): only poorly pronounced
rate of catabolism of LDL (LDL [2]; in vivo): increases the rate of catabolism of LDL

Source: patent publication US5294724A, “4-hydroxytetrahydropyran-2-ones and the corresponding dihydroxycarboxylic acid derivatives, salts and esters and a process for their preparation” (priority 1989, dated 1994)
